According to PMC8100298, “Histone deacetylase inhibitor resminostat in combination with sorafenib counteracts platelet-mediated pro-tumoral effects in hepatocellular carcinoma” (Scientific Reports, 2021):
Where two headings read alike, the source gives them in different places.

Assays:
Assay in all cases: Efficacy screening assay
Format in all cases: cell-based
22RV1 = details: 22RV1, prostate
Procedure: (§1) The experiment was performed by Oncolead GmbH & Co. KG (Karlsfeld , Germany), based on a standardized screening procedure . Cell lines were purchased directly from the ATCC, NCI and DSMZ cell line c ollections. Cells used for the study had undergone less than 20 passages. To ensure the absence of potential contamination and wrong assignment, all cell lines were tested using a whole genome assay (Agilent, USA). All cell lines were grown as recommended by the suppliers and with addition of 100 U/mL penicillin G and 100 µg/mL; streptomycin. Cell growth and treatments were performed in Nunclon D 96 -well plates (NUNC, Germany). The optimal seeding density for each cell line was determined to ensure exponential growth for the duration of the experiment. All cells growing without anti-cancer agents were sub-conﬂuent by the end of the treatment, as determined by visual inspection.
(§2) After an initial 24 h pre-growth period, the compounds were added. The vehicle concentration […]
(§3) was 0.1% DMSO. After incubation at 37°C for 72 h, the culture medium was aspirated, and the cells were precipitated by the addition of 10% trichloroacetic acid (Sigma-Aldrich, Missouri, US). After overnight incubation at 4°C, the plates were washed three times with deionized water. The precipitates were then stained with SRB (0.4% wt/v sulforhodamine B solution in 1% acetic acid, Sigma-Aldrich, Missouri, US). Afterwards, the plates were washed six times with 1% acetic acid to remove unbound stain. After drying the plates at room temperature, the bound SRB was solubilized with 10 mM Tris base and the optical density was measured at 520 nm using a Victor2 plate reader (Perkin Elmer, Germany). Blank OD values were subtracted from mean OD values for each concentration. The nonlinear curve ﬁtting and EC50 calculations were per formed using XLﬁt and algorithm “205” (ID Business […]
(§4) one-way ANOVA and multiple comparison (Dunnett) was performed for compound treatments compared to vehicle control. The adjusted p-values with 95% confidence interval were reported as significant. For comparison of EC50 values in Figure 1F, one-way ANOVA with multiple comparison testing (Tukey) was performed. Multiplicity adjusted p -values for the EC50 with sorafenib versus resminostat for each cell line and comparison between cell lines for sorafenib are presented (95% confidence interval for significance testing). For comparison of EC50 data in Figure 2B, one-way ANOVA with multiple comparison testing (Tukey) was performed. Multiplicity adjusted p-values with 95% confidence interval was applied. For the invasion assays in Figure 4, one-way ANOVA with multiple comparison testing (Tukey) was performed. Multiplicity adjusted p-values with 95% confidence interval was applied. The adjusted p-values comparing vehicle control without vs. with platelets and compound

786O = details: kidney
Procedure: as §1, §2, §3, §4

A204 = details: A204, muscle
Procedure: as §1, §2, §3, §4

A2780 = details: A2780, ovary
Procedure: as §1, §2, §3, §4

A431 = details: A431, skin
Procedure: as §1, §2, §3, §4

A549 = details: A549, lung
Procedure: as §1, §2, §3, §4

ASPC1 = details: Homo sapiens, ASPC1, pancreas, 72 h
Procedure: as §1, §2, §3, §4

BT20 = details: BT20, breast
Procedure: as §1, §2, §3, §4

BXPC3 = details: BXPC3, pancreas
Procedure: as §1, §2, §3, §4

CACO2 = details: CACO2, colon
Procedure: as §1, §2, §3, §4

CAKI1 = details: CAKI1, kidney
Procedure: as §1, §2, §3, §4

ACHN = details: 72 h, kidney
Procedure: (§5) In a two-step reaction, the substrate with the acetylated lysine side chain was incubated for with a sample containing HDAC activity to p roduce the deacetylated products: 1 h at 30°C for HDAC1, 2, 3 and 6; 30 min at RT for HDAC4, 5, 7 and 9; 2 h at 30°C for HDAC8, 10 and […]
(§6) (excitation) and 460 nm (emission). […]
as §1, §2, §3
(§7) For cell-based and other in vitro assays, data are presented as data mean ± SD of at least […]
(§8) For the orthotopic mouse model, data are presented as mean + SEM. For statistical analysis, one-way ANOVA and multiple comparison (Dunnett) was performed for compound treatments compared to vehicle control. The adjusted p-values with 95% confidence interval were reported as significant. For comparison of EC50 values in Figure 1F, one-way ANOVA with multiple comparison testing (Tukey) was performed. Multiplicity adjusted p -values for the EC50 with sorafenib versus resminostat for each cell line and comparison between cell lines for sorafenib are presented (95% confidence interval for significance testing). For comparison of EC50 data in Figure 2B, one-way ANOVA with multiple comparison testing (Tukey) was performed. Multiplicity adjusted p-values with 95% confidence interval was applied. For the invasion assays in Figure 4, one-way ANOVA with multiple comparison testing (Tukey) was performed. Multiplicity adjusted p-values with 95% confidence interval was applied. The adjusted p-values comparing vehicle control without vs. with platelets and compound

NCIH82 = details: Homo sapiens, NCI-H82, NCIH82, lung, 72 h
Procedure: as §5, §6, §1, §2, §3, §7, §8

[1] = log of EC50, negative, read-out: log(EC50) (converted)

## CN(C)Cc1ccc(S(=O)(=O)n2ccc(/C=C/C(=O)NO)c2)cc1 [resminostat, Resminostat]
22RV1; 72 h, read-out: EC50
  EC50: 1450 nM
22RV1; Homo sapiens, 22Rv1, 72 h, log of EC50, negative, read-out: log(EC50) (converted)
  EC50: 1450 nM
22RV1; Homo sapiens, 22Rv1, 72 h, read-out: EC50
  EC50: 1450 nM
786O; Homo sapiens, 786-0, 72 h, log of EC50, negative, read-out: log(EC50) (converted)
  EC50: 2570 nM
786O; Homo sapiens, 786-0, 72 h, read-out: EC50
  EC50: 2540 nM
786O; 72 h, read-out: EC50
  EC50: 2540 nM
A204; 72 h, read-out: EC50
  EC50: 910 nM
A204; Homo sapiens, A204, 72 h, log of EC50, negative, read-out: log(EC50) (converted)
  EC50: 912 nM
A204; Homo sapiens, A204, 72 h, read-out: EC50
  EC50: 906 nM
A2780; 72 h, read-out: EC50
  EC50: 890 nM
A2780; Homo sapiens, A2780, 72 h, log of EC50, negative, read-out: log(EC50) (converted)
  EC50: 891 nM
A2780; Homo sapiens, A2780, 72 h, read-out: EC50
  EC50: 890 nM
A431; 72 h, read-out: EC50
  EC50: 1490 nM
A431; Homo sapiens, A-431, 72 h, log of EC50, negative, read-out: log(EC50) (converted)
  EC50: 1480 nM
A431; Homo sapiens, A-431, 72 h, read-out: EC50
  EC50: 1490 nM
A549; 72 h, read-out: EC50
  EC50: 3500 nM
A549; Homo sapiens, A549, 72 h, log of EC50, negative, read-out: log(EC50) (converted)
  EC50: 3470 nM
A549; Homo sapiens, A549, 72 h, read-out: EC50
  EC50: 3500 nM
ASPC1; [1]
  EC50: 1660 nM
ASPC1; read-out: EC50
  EC50: 1650 nM
BT20; 72 h, read-out: EC50
  EC50: 1320 nM
BT20; Homo sapiens, BT-20, 72 h, log of EC50, negative, read-out: log(EC50) (converted)
  EC50: 1320 nM
BT20; Homo sapiens, BT-20, 72 h, read-out: EC50
  EC50: 1320 nM
BXPC3; 72 h, read-out: EC50
  EC50: 4230 nM
BXPC3; Homo sapiens, BXPC-3, 72 h, log of EC50, negative, read-out: log(EC50) (converted)
  EC50: 4270 nM
BXPC3; Homo sapiens, BXPC-3, 72 h, read-out: EC50
  EC50: 4220 nM
CACO2; 72 h, read-out: EC50
  EC50: 1780 nM
CACO2; Homo sapiens, Caco-2, 72 h, log of EC50, negative, read-out: log(EC50) (converted)
  EC50: 1780 nM
CACO2; Homo sapiens, Caco-2, 72 h, read-out: EC50
  EC50: 1780 nM
CAKI1; 72 h, read-out: EC50
  EC50: 3270 nM
CAKI1; Homo sapiens, CAKI-1, 72 h, log of EC50, negative, read-out: log(EC50) (converted)
  EC50: 3310 nM
CAKI1; Homo sapiens, CAKI-1, 72 h, read-out: EC50
  EC50: 3270 nM
ACHN; Homo sapiens, log of EC50, negative, read-out: log(EC50) (converted)
  EC50: 1950 nM
ACHN; Homo sapiens, read-out: EC50
  EC50: 1950 nM
ACHN; read-out: EC50
  EC50: 1950 nM
NCIH82; [1]
  EC50: 776 nM
NCIH82; read-out: EC50
  EC50: 770 nM
